Assay results reported in patent US20230092890A1, “1, 3, 4-Oxadiazole derivative compounds as histone deacetylase 6 inhibitor, and the pharmaceutical composition comprising the same” (Chong Kun Dang Pharmaceutical Corp., priority 2019, published 2023).
pIC50: −log10 of the molar value.

Columns and labels:
HDAC1 = target: T1, HDAC1 (Homo sapiens, UniProt Q13547); experiment: HDAC enzyme activity inhibition (in vitro), HDAC1 Fluorimetric Drug Discovery Assay Kit; type: biochemical; conditions: samples at 100, 1000 and 10000 nM; 37° C. 60 minutes; fluorescence Ex 390, Em 460; read-out: HDAC1 IC50
T1 construct: purchased Enzolifesciences BML-AK511
In short: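 Fluorescence read-out (Ex 390/Em 460) after developer step, 30 min at 37° C, following a 60-min 37° C enzyme reaction. Test concentrations: HDAC1 kit, 100–10000 nM (three levels); recombinant human HDAC6, 0.1–1000 nM (five levels).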

HDAC6 human recombinant = target: T2, HDAC6 human recombinant (Homo sapiens, UniProt Q9UBN7); experiment: HDAC enzyme activity inhibition (in vitro), HDAC6 assay; type: biochemical; conditions: samples at 0.1, 1, 10, 100 and 1000 nM; 37° C. 60 minutes; fluorescence Ex 390, Em 460; read-out: HDAC6 IC50
T2 construct: purchased Calbiochem 382180
T2 sequence (Q9UBN7 1-1215): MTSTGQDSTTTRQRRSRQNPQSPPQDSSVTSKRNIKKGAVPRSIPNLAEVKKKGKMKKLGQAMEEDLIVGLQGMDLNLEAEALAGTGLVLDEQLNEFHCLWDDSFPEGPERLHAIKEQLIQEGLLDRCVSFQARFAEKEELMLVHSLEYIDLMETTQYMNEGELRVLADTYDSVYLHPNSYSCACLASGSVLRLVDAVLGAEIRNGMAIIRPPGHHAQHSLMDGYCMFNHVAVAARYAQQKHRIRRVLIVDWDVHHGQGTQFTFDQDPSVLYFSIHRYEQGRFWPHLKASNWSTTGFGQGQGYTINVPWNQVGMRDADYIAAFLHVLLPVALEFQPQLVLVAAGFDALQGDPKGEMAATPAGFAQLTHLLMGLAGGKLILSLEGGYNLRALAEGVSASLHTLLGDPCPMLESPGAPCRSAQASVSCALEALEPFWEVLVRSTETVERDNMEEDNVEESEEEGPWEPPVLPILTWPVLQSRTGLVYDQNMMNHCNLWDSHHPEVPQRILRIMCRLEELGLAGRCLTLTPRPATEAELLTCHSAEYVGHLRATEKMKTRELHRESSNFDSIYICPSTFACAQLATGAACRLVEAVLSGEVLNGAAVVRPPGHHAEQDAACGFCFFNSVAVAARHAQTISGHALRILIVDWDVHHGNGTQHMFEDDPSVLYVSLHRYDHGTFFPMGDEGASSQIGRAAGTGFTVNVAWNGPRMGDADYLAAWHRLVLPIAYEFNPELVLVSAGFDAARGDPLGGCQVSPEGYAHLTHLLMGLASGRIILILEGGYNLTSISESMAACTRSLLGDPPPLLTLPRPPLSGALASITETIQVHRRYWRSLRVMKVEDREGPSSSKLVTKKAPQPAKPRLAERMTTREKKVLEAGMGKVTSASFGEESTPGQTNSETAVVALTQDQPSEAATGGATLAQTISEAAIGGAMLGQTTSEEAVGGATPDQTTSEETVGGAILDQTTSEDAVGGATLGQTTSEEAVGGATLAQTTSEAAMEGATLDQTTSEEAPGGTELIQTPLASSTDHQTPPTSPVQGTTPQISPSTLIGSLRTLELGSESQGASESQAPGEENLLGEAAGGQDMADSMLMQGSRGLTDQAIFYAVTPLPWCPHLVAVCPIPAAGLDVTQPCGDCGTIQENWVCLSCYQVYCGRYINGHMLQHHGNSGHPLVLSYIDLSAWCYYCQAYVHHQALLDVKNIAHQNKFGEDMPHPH
In short: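 Fluorescence (Ex 390, Em 460) read after a 37° C, 60 min enzyme reaction and a further 30 min developer step at 37° C. Uses recombinant human HDAC6; HDAC1 arm dosed at 100, 1000, 10000 nM.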

T1 sequence (Q13547 whole entry): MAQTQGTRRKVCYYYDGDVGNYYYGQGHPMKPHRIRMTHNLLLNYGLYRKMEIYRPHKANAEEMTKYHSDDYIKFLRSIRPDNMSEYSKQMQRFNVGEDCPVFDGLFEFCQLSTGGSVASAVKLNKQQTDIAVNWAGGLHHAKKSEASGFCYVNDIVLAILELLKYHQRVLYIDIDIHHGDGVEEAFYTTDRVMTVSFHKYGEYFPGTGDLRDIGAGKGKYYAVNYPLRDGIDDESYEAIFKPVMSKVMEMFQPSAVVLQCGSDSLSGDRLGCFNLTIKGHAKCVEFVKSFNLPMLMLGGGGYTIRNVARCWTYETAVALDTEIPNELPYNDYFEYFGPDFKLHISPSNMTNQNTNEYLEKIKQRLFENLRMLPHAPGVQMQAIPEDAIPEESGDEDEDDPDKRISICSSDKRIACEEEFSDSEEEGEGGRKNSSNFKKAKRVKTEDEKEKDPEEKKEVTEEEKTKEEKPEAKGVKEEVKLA

Structure (SMILES) | pIC50 (HDAC1) | pIC50 (HDAC6 human recombinant)
CN1CCC(n2c(=O)n(Cc3ccc(-c4nnc(C(F)F)o4)cn3)c3ccc(-c4cccnc4)cc32)CC1 [Compound 136, 1-((5-(5-(difluoromethyl)-1,3,4-oxadiazole-2-yl)pyridine-2-yl)methyl)-3-(1-methylpiperidine-4-yl)-5-(pyridine-3-yl)-1,3-dihydro-2H-benzo[d]imidazole-2-one] | < 5.00 | 7.92
CN1CCC(n2c(=O)n(Cc3ccc(-c4nnc(C(F)F)o4)cn3)c3ccc(-c4ccoc4)cc32)CC1 [Compound 137, 1-((5-(5-(difluoromethyl)-1,3,4-oxadiazole-2-yl)pyridine-2-yl)methyl)-5-(furan-3-yl)-3-(1-methylpiperidine-4-yl)-1,3-dihydro-2H-benzo[d]imidazole-2-one] | < 5.00 | 7.72
CN1CCC(n2c(=O)n(Cc3ccc(-c4nnc(C(F)F)o4)cn3)c3ccc(-c4ccco4)cc32)CC1 [Compound 138, 1-((5-(5-(difluoromethyl)-1,3,4-oxadiazole-2-yl)pyridine-2-yl)methyl)-5-(furan-2-yl)-3-(1-methylpiperidine-4-yl)-1,3-dihydro-2H-benzo[d]imidazole-2-one] | < 5.00 | 7.72
CN1CCC(n2c(=O)n(Cc3ccc(-c4nnc(C(F)F)o4)cc3F)c3ccc(-c4cccnc4)cc32)CC1 [Compound 139, 1-(4-(5-(difluoromethyl)-1,3,4-oxadiazole-2-yl)-2-fluorobenzyl)-3-(1-methylpiperidine-4-yl)-5-(pyridine-3-yl)-1,3-dihydro-2H-benzo[d]imidazole-2-one] | < 5.00 | 7.51
CN1CCC(n2c(=O)n(Cc3ccc(-c4nnc(C(F)F)o4)cc3F)c3ccc(-c4ccco4)cc32)CC1 [Compound 140, 1-(4-(5-(difluoromethyl)-1,3,4-oxadiazole-2-yl)-2-fluorobenzyl)-5-(furan-2-yl)-3-(1-methylpiperidine-4-yl)-1,3-dihydro-2H-benzo[d]imidazole-2-one] | < 5.00 | 7.27
CN1CCC(n2c(=O)n(Cc3ccc(-c4nnc(C(F)F)o4)cn3)c3cc(Br)ccc32)CC1 [Compound 141, 5-bromo-3-((5-(5-(difluoromethyl)-1,3,4-oxadiazole-2-yl)pyridine-2-yl)methyl)-1-(1-methylpiperidine-4-yl)-1,3-dihydro-2H-benzo[d]imidazole-2-one] | < 5.00 | 7.92
Cn1c(=O)n(Cc2ccc(-c3nnc(C(F)F)o3)cn2)c2cc(F)ccc21 [Compound 142, 3-((5-(5-(difluoromethyl)-1,3,4-oxadiazole-2-yl)pyridine-2-yl)methyl)-5-fluoro-1-methy 1-1,3-dihydro-2H-benzo[d]imidazole-2-one] | < 5.00 | 7.74
Cn1c(=O)n(Cc2ccc(-c3nnc(C(F)F)o3)cc2F)c2cc(F)ccc21 [Compound 143, 3-(4-(5-(difluoromethyl)-1,3,4-oxadiazole-2-yl)-2-fluorobenzyl)-5-fluoro-1-methyl-1,3-dihydro-2H-benzo[d]imidazole-2-one] | < 5.00 | 7.15
Cn1c(=O)n(Cc2ccc(-c3nnc(C(F)F)o3)cc2)c2cc(F)ccc21 [Compound 144, 3-(4-(5-(difluoromethyl)-1,3,4-oxadiazole-2-yl)benzyl)-5-fluoro-1-methyl-1,3-dihydro-2H-benzo[d]imidazole-2-one] | < 5.00 | 7.11
CN1CCC(n2c(=O)n(Cc3ccc(-c4nnc(C(F)F)o4)cn3)c3cc(-c4cccnc4)ccc32)CC1 [Compound 145, 3-((5-(5-(difluoromethyl)-1,3,4-oxadiazole-2-yl)pyridine-2-yl)methyl)-1-(1-methylpiperidine-4-yl)-5-(pyridine-3-yl)-1,3-dihydro-2H-benzo[d]imidazole-2-one] | < 5.00 | 6.50
Cc1ccc(-c2ccc3c(c2)n(Cc2ccc(-c4nnc(C(F)F)o4)cn2)c(=O)n3C2CCN(C)CC2)o1 [Compound 146, 3-((5-(5-(difluoromethyl)-1,3,4-oxadiazole-2-yl)pyridine-2-yl)methyl)-5-(5-methylfuran-2-yl)-1-(1-methylpiperidine-4-yl)-1,3-dihydro-2H-benzo[d]imidazole-2-one] | < 5.00 | 6.89
Cn1c(=O)n(Cc2ccc(-c3nnc(C(F)F)o3)cn2)c2cc(F)c(Br)cc21 [Compound 147, 5-bromo-1-((5-(5-(difluoromethyl)-1,3,4-oxadiazole-2-yl)pyridine-2-yl)methyl)-6-fluoro-3-methyl-1,3-dihydro-2H-benzo[d]imidazole-2-one] | < 5.00 | 7.82
Cn1c(=O)n(Cc2ccc(-c3nnc(C(F)F)o3)cc2F)c2cc(F)c(Br)cc21 [Compound 148, 5-bromo-1-(4-(5-(difluoromethyl)-1,3,4-oxadiazole-2-yl)-2-fluorobenzyl)-6-fluoro-3-methyl-1,3-dihydro-2H-benzo[d]imidazole-2-one] | < 5.00 | 7.21
CN1CCC(n2c(=O)n(Cc3ccc(-c4nnc(C(F)F)o4)cn3)c3cc(F)c(Br)cc32)CC1 [Compound 149, 5-bromo-1-((5-(5-(difluoromethyl)-1,3,4-oxadiazole-2-yl)pyridine-2-yl)methyl)-6-fluoro-3-(1-methylpiperidine-4-yl)-1,3-dihydro-2H-benzo[d]imidazole-2-one] | < 5.00 | 7.40
CN1CCC(n2c(=O)n(Cc3ccc(-c4nnc(C(F)F)o4)cn3)c3cc(F)c(-c4ccoc4)cc32)CC1 [Compound 150, 1-((5-(5-(difluoromethyl)-1,3,4-oxadiazole-2-yl)pyridine-2-yl)methyl)-6-fluoro-5-(furan-3-yl)-3-(1-methylpiperidine-4-yl)-1,3-dihydro-2H-benzo[d]imidazole-2-one] | < 5.00 | 7.37
CN1CCC(n2c(=O)n(Cc3ccc(-c4nnc(C(F)F)o4)cn3)c3cc(F)c(-c4ccco4)cc32)CC1 [Compound 151, 1-((5-(5-(difluoromethyl)-1,3,4-oxadiazole-2-yl)pyridine-2-yl)methyl)-6-fluoro-5-(furan-2-yl)-3-(1-methylpiperidine-4-yl)-1,3-dihydro-2H-benzo[d]imidazole-2-one] | < 5.00 | 7.26
CN1CCC(n2c(=O)n(Cc3ccc(-c4nnc(C(F)F)o4)cn3)c3cc(F)c(-c4ccccc4F)cc32)CC1 [Compound 152, 1-((5-(5-(difluoromethyl)-1,3,4-oxadiazole-2-yl)pyridine-2-yl)methyl)-6-fluoro-5-(2-fluorophenyl)-3-(1-methylpiperidine-4-yl)-1,3-dihydro-2H-benzo[d]imidazole-2-one] | < 5.00 | 7.47
CN1CCC(n2c(=O)n(Cc3ccc(-c4nnc(C(F)F)o4)cn3)c3cc(F)c(-c4ccncc4)cc32)CC1 [Compound 153, 1-((5-(5-(difluoromethyl)-1,3,4-oxadiazole-2-yl)pyridine-2-yl)methyl)-6-fluoro-3-(1-methylpiperidine-4-yl)-5-(pyridine-4-yl)-1,3-dihydro-2H-benzo[d]imidazole-2-one] | < 5.00 | 7.80
CN1CCC(n2c(=O)n(Cc3ccc(-c4nnc(C(F)F)o4)cn3)c3cc(F)c(-c4cccc(F)c4)cc32)CC1 [Compound 154, 1-((5-(5-(difluoromethyl)-1,3,4-oxadiazole-2-yl)pyridine-2-yl)methyl)-6-fluoro-5-(3-fluorophenyl)-3-(1-methylpiperidine-4-yl)-1,3-dihydro-2H-benzo[d]imidazole-2-one] | < 5.00 | 7.38
